In assay [1] the target is purified human Factor XIa (Homo sapiens (Human), UniProt P03951). Kind of assay: Factor XIa Assay. It counts as biochemical. The note with it: purified human Factor XIa 40 pM; substrate Z-Gly-Pro-Arg-AFC 100 μM; 50 mM HEPES pH 7.4; read-out: Human FXIa Ki. Summed up:
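Purified human FXIa at 40 pM final with fluorogenic Z-Gly-Pro-Arg-AFC at 100 μM, in 50 mM HEPES pH 7.4, 150 mM NaCl, 5 mM CaCl2, 0.1% PEG 8000, at rt or 37° C. Initial velocities measured after enzyme–inhibitor equilibration; Ki derived from Vo/Vi versus [I] assuming competitive inhibition.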

In assay [2] the target is purified Human plasma Kallikrein (Homo sapiens (Human), UniProt P03952). Kind of assay: Kallikrein Assay. It counts as biochemical. Summed up: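 Purified human plasma kallikrein (0.5 nM) with fluorogenic Ac-K-P-R-AFC ([…]) in 50 mM HEPES pH 7.4, 150 mM NaCl, 5 mM CaCl2, 0.1% PEG 8000, at rt or 37 °C. Substrate hydrolysis rate read with and without inhibitor; IC50 from four-parameter logistic fit, converted to Ki by Cheng–Prusoff.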
Sequence of purified Human plasma Kallikrein (P03952 391-638): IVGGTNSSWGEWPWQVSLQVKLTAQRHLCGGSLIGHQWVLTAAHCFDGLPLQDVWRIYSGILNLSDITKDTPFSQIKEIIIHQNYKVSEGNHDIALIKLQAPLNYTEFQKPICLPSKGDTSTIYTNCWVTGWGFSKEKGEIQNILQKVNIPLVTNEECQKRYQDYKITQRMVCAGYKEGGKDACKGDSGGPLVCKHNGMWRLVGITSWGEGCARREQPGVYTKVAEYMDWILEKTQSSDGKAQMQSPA
Sequence of purified Human plasma Kallikrein (P03952 20-390 partner): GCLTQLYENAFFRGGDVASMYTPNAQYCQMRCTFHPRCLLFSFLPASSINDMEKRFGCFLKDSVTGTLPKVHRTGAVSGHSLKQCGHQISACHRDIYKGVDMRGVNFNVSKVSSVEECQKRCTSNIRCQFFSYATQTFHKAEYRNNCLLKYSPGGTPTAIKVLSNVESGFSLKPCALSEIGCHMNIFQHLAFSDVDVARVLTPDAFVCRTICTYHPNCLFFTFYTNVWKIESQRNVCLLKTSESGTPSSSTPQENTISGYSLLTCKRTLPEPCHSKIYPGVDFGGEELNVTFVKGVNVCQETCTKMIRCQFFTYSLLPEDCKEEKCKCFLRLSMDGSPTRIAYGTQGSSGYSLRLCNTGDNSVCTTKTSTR

[3] abbreviates: purified Human plasma Kallikrein 0.5 nM, substrate Acetyl-K-P-R-AFC, 50 mM HEPES pH 7.4, Ki from IC50 by Cheng Prusoff.

Read-outs that look alike come from different tables or passages of the source.

Sequence of purified human Factor XIa (P03951 388-625): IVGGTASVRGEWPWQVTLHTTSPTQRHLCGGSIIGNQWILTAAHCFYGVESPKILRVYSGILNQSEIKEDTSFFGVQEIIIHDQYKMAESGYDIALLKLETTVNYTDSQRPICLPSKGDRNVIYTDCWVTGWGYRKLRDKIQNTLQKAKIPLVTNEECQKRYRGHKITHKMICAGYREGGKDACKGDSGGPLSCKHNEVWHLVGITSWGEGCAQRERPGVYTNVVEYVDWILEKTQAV
Sequence of purified human Factor XIa (P03951 19-387 partner): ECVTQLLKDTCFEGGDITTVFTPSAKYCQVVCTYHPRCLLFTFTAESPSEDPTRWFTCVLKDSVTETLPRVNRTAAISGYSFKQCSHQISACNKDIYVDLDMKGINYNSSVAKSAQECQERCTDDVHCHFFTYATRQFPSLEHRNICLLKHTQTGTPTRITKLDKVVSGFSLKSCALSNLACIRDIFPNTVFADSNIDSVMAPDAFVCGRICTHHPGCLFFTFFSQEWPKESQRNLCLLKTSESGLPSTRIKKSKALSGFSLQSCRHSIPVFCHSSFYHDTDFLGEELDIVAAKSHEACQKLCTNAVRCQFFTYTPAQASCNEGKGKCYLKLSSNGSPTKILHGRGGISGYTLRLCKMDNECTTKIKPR

As a reminder, the Ki is the dissociation constant of the complex between target and ligand, obtained from inhibition or displacement. As to `COC(=O)Nc1ccc2c(c1)NC(=O)C(C)CCCC(c1ccc(-c3c(F)ccc(Cl)c3F)c[n+]1[O-])c1cccc-2c1` (single isomer, unassigned) [Example 50-a, 5-(3-chloro-2,6-difluorophenyl)-2-(2^4-((methoxycarbonyl)amino)-5-methyl-4-oxo-3-aza-1(1,3),2(1,2)-dinenzenacyclononaphane-9-yl)pyridine 1-oxide], the inhibitory constant (Ki) in assay [1] was 0.53 nM; in assay [2] (setting [3]), 1.89 nM.

For `O=C1CCCCC(c2ccc(-c3cc(Cl)ccc3-n3cnnn3)c[n+]2[O-])c2ccnc(c2)-c2cc(F)ccc2N1` (stereo not drawn) [Example 70, 5-(5-chloro-2-(1H-tetrazol-1-yl)phenyl)-2-(2^5-fluoro-4-oxo-3-aza-1(2,4)-pyridina-2(1,2)-benzenacyclononaphane-9-yl)pyridine 1-oxide], the Ki in assay [1] is 0.37 nM; in assay [2] (setting [3]), 2.09 nM.

`O=C1CCCCC(c2ccc(-c3cc(Cl)ccc3-n3cnnn3)cn2)c2ccnc(c2)-c2cc(F)ccc2N1` (stereo not drawn) [Example 56, 9-(5-(5-chloro-2-(1h-tetrazol-1-yl)phenyl)pyridin-2-yl)-25-fluoro-3-aza-1(2,4)-pyridina-2(1,2)-benzenacyclononaphan-4-one]: the Ki in assay [1] was found to be 14.1 nM; in assay [2] (setting [3]) it was 149 nM.

Regarding `CCc1[nH]c2nc1-c1ccc(NC(=O)OC)cc1NC(=O)CCCC[C@@H]2c1ccc(-c2c(F)cccc2-n2cc(C(F)(F)F)cn2)c[n+]1[O-]` (single isomer, unassigned) [Example 138], the Ki was determined as 2.3 nM in assay [1] and 665 nM in assay [2] (setting [3]).

Turning to `COC(=O)Nc1ccc2c(c1)NC(=O)CCCC[C@H](c1ccc(-c3cc(Cl)ccc3-n3cc(C(F)(F)F)cn3)c[n+]1[O-])c1cccc-2c1` (single isomer, unassigned) [Example 40], the Ki in assay [1] was 0.46 nM; in assay [2] (setting [3]), 13.7 nM.

As for `CC1CCCC(c2ccc(-c3c(-n4cnnn4)ccc(Cl)c3F)c[n+]2[O-])c2cccc(c2)-c2cc(F)ccc2NC1=O` (stereo not drawn) [Example 8, 5,5-(3-chloro-2-fluoro-6-(1h-tetrazol-1-yl)phenyl)-2-(2^5-fluoro-5-methyl-4-oxo-3-aza-1(1,3),2(1,2)-dibenzenacyclononaphane-9-yl)pyridine 1-oxide], the Ki is 0.41 nM in assay [1] and 1.94 nM in assay [2] (setting [3]).

In the case of `COC(=O)Nc1ccc2c(c1)NC(=O)CCCC[C@H](c1ccc(-c3cc(Cl)ccc3-n3cc(Cl)nn3)c[n+]1[O-])c1cccc-2c1` (single isomer, unassigned) [Example 37], the Ki in assay [1] worked out at 0.13 nM; in assay [2] (setting [3]) it was 0.36 nM.

For the compound `O=C1CCCC[C@H](c2ccc(-c3cc(Cl)ccc3-n3cc(C(F)(F)F)cn3)c[n+]2[O-])c2cccc(c2)-c2c(cnn2C(F)F)N1` (single isomer, unassigned) [Example 167], the figures for the Ki in assay [1] and in assay [2] (setting [3]) were 1.37 nM and 376 nM, respectively.

`COC(=O)Nc1ccc2c(c1)NC(=O)[C@H](C)CCC[C@H](c1ccc(-c3c(F)cccc3F)c[n+]1[O-])c1nc-2c(C)[nH]1` (single isomer, unassigned) [Example 143-b]: the Ki in assay [1] was 0.1 nM; in assay [2] (setting [3]) it was 0.4 nM.

Take `O=C1CCCC[C@H](c2ccc(-c3c(F)ccc(Cl)c3F)c[n+]2[O-])c2cccc(c2)-c2ccc(Nc3ncccn3)cc2N1` [Example 48, (S)-5-(3-chloro-2,6-difluorophenyl)-2-(4-oxo-2^4-(pyrimidin-2-YLAMINO)-3-AZA-1 (1,3),2(1,2)-dinenzenacyclononaphane-9-yl)pyridine 1-oxide]: the results for the Ki in assay [1] and in assay [2] (setting [3]) were 2.1 nM and 1.76 nM, respectively.

Turning to `CCOC(=O)Nc1ccc2c(c1)NC(=O)CCCCC(c1ccc(-c3c(F)ccc(Cl)c3F)c[n+]1[O-])c1nc-2c[nH]1` (single isomer, unassigned) [Example 109-a, (Z)-5-(3-chloro-2,6-difluorophenyl)-2-(2^4-((ethoxycarbonyl)amino)-4-oxo-1^1H-3-aza-1(4,2)-imidazola-2(1,2)-benzenacyclononaphane-9-yl)pyridine 1-oxide], the Ki turned out to be 0.23 nM in assay [1] and 0.77 nM in assay [2] (setting [3]).

As to `CCc1[nH]c2nc1-c1ccc(NC(=O)OC)cc1NC(=O)CCCCC2c1ccc(-c2c(F)ccc(Cl)c2F)c[n+]1[O-]` (single isomer, unassigned) [Example 112-a, (Z)-5-(3-Chloro-2,6-difluorophenyl)-2-(1^5-ethyl-2^4-((Methoxycarbonyl)amino)-4-oxo-1^1H-3-AZA-1(4,2)-imidazola-2(1,2) -benzenacyclononaphane-9-yl)pyridine 1-oxide], the inhibition constant (Ki) in assay [1] is 0.13 nM; in assay [2] (setting [3]), 0.26 nM.

Take `O=C1CCCC[C@H](c2ccc(-c3cc(Cl)ccc3-c3cnco3)c[n+]2[O-])c2nc(c[nH]2)-c2cc(F)ccc2N1` (single isomer, unassigned) [Example 118]: the Ki in assay [1] was determined as 5.69 nM; in assay [2] (setting [3]), 37.5 nM.

`O=C1CCCC[C@H](c2ccc(-c3cc(Cl)ccc3-n3cnnn3)c[n+]2[O-])c2cccc(c2)-c2cc(C(=O)O)ccc2N1` [Example 4-b, 2-(2^5-Carboxy-4-oxo-3-aza-1(1,3),2(1,2)-dibenzenacyclononaphane-9-yl)-5-(5-chloro-2-(1H-tetrazol-1-yl)phenyl)pyridine 1-oxide]: the Ki in assay [1] worked out at 8.4 nM; in assay [2], 332 nM.

For `COC(=O)Nc1ccc2c(c1)NC(=O)CCCCC(c1ccc(-c3cc(Cl)ccc3-n3cnnn3)cn1)c1cc-2c(F)cn1` (stereo not drawn) [Example 61, methyl (9-(5-(5-chloro-2-(1h-tetrazol-1-yl)phenyl)pyridin-2-yl)-1^5-fluoro-4-oxo-3-aza-1(4,2)-pyridina-2(1,2)-benzenacyclononaphane-2^4-yl)carbamate], the Ki was found to be 1.4 nM in assay [1] and 26 nM in assay [2] (setting [3]).

`COC(=O)Nc1ccc2c(c1)NC(=O)C(C)CCCC(c1ccc(-c3c(F)ccc(Cl)c3F)c[n+]1[O-])c1ccc(F)c-2c1` (single isomer, unassigned) [Example 86-d, 5-(3-Chloro-2,6-difluorophenyl)-2-(1^6-fluoro-2^4-((methoxycarbonyl)amino)-5-methyl-4-oxo-3-aza-1(1,3),2(1,2) -dibenzenacyclononaphane-9-yl)pyridine 1-oxide]: the Ki in assay [1] was 1.65 nM; in assay [2] (setting [3]) it was 5.36 nM.

With `O=C1CCCCC(c2ccc(-c3c(-n4cnnn4)ccc(Cl)c3F)c[n+]2[O-])c2cccc(c2)-c2cc(C(=O)O)ccc2N1` (single isomer, unassigned) [Example 5-a, 2-(2^5-carboxy-4-oxo-3-aza-1(1,3),2(1,2)-dibenzenacyclononaphane-9-yl)-5-(3-chloro-2-fluoro-6-(1H-tetrazol-1-yl)phenyl)pyridine 1-oxide], the Ki in assay [1] came out at 0.13 nM; in assay [2] (setting [3]), 3.15 nM.

Take `COC(=O)Nc1ccc2c(c1)NC(=O)C(C)CCCC(c1ccc(-c3c(F)ccc(Cl)c3F)c[n+]1[O-])c1cccc-2c1` (single isomer, unassigned) [Example 50-b, 5-(3-chloro-2,6-difluorophenyl)-2-(2^4-((methoxycarbonyl)amino)-5-methyl-4-oxo-3-aza-1(1,3),2(1,2)-dinenzenacyclononaphane-9-yl)pyridine 1-oxide]: the Ki in assay [1] stood at 3.5 nM; in assay [2] (setting [3]), 10.6 nM.

For `COC(=O)Nc1ccc2c(c1)NC(=O)CCCC[C@H](c1ccc(-c3c(F)cccc3C(F)(F)F)c[n+]1[O-])c1nc-2c(C)[nH]1` (single isomer, unassigned) [Example 122], the values for the Ki in assay [1] and in assay [2] (setting [3]) were 0.36 nM and 2.96 nM, respectively.

In the case of `COC(=O)Nc1ccc2c(c1)NC(=O)CCCCC(c1ccc(-c3cc(Cl)ccc3-n3cnnn3)c[n+]1[O-])c1cccc-2c1` (single isomer, unassigned) [Example 6-a, 5-(5-Chloro-2-(1H-tetrazol-1-yl)phenyl)-2-(2^4-((methoxycarbonyl)amino)-4-oxo-3-aza-1(1,3),2(1,2) -dibenzenacyclononaphane-9-yl)pyridine 1-oxide], the values for the Ki in assay [1] and in assay [2] (setting [3]) were 0.1 nM and 0.29 nM, respectively.

`CC1CCCC(c2ccc(-c3cc(Cl)ccc3-n3cnnn3)c[n+]2[O-])c2cccc(c2)-c2ccc(C#N)cc2NC1=O` (stereo not drawn) [Example 84, 5-(5-chloro-2-(1H-tetrazol-1-yl)phenyl)-2-(2^4-cyano-5-Methyl-4-OXO-3-aza-1(1,3), 2(1,2)-dinenzenacyclononaphane-9-yl)pyridine 1-oxide]: the Ki is 0.38 nM in assay [1] and 1.85 nM in assay [2] (setting [3]).

Turning to `CCc1[nH]c2nc1-c1ccc(NC(=O)OC)cc1NC(=O)CCCC[C@@H]2c1ccc(-c2c(F)cccc2OC(F)F)c[n+]1[O-]` (single isomer, unassigned) [Example 127], the Ki in assay [1] was 0.15 nM; in assay [2] (setting [3]), 2.44 nM.

On to `COC(=O)Nc1ccc2c(c1)NC(=O)CCCCC(c1ccc(-c3c(F)ccc(Cl)c3F)c[n+]1[O-])c1cc-2[n+]([O-])cc1F` (stereo not drawn) [Example 82, 9-(5-(3-chloro-2,6-difluorophenyl)-1-oxidopyridin-2-yl)-1^5-fluoro-2^4-((methoxycarbonyl)amino)-4-oxo-3-aza-1(2,4)-pyridin-1-iuma-2(1,2)-benzenacyclononaphane 1^1-oxide], for which the Ki in assay [1] is 3.7 nM; in assay [2] (setting [3]), 9.58 nM.

As for `C[C@@H]1CCC[C@H](c2ccc(-c3cc(Cl)ccc3-n3cc(Cl)nn3)c[n+]2[O-])c2cccc(c2)-c2c(cnn2C(F)F)NC1=O` (single isomer, unassigned) [Example 166-a], the Ki in assay [1] came to 0.14 nM; in assay [2] (setting [3]) it was 1.39 nM.
